Results on eleven molecules are retold here after patent US5372813A (priority 1992, dated 1994).

Like-named read-outs stand apart in the source and are kept apart here.

Series [1] addresses T1, 5-HT (serotonin) reuptake complex (Rattus norvegicus, UniProt P31652).
T1 construct: Rat cortical brain homogenates were incubated with 3H-paroxetine; from tissue; host or cells: rat cortical brain homogenates
As to the kind of experiment: competition with 3H-paroxetine for the 5-HT reuptake complex in rat cortical brain homogenates (Ki). The series is classed as binding.

The target in series [2] is T1, 5-HT (serotonin) reuptake complex. The description is as above. The note with it: Ki of analogue relative to Ki of 6-NQP. The series is classed as binding. The procedure:
A potency ratio was also determined by comparing the Ki of the analogue to the Ki experimentally determined for the unsubstituted 6-Nitroquipazine.

The target in another series is serotonin uptake sites (Rattus norvegicus, UniProt P31652). The series can be described thus: Scatchard saturation binding of 5-125I-6-NQP to isolated rat brain membranes, control and PCA-treated. The note with it: PCA-treated versus control rats, in vitro, in words.
A short description of series [3]: metabolite determination in brain and thyroid radioactivity after injection of 5-125I-6-NQP. The format is in vivo, rat. The method, then: The brains of rats which had been injected with 25 μCi of 5-^125 I-6-NQP 6 h earlier were removed, homogenized, and repeatedly extracted with ethyl acetate and added cold 5-I-6-NQP carrier. The ethyl acetate fractions were pooled and evaporated, and the concentrate subject to TLC and HPLC (with fraction collection) analyses to determine metabolites in the brain.

Series [4] concerns 5-HT reuptake complex. As to the kind of experiment: ex vivo autoradiography of rat brain. The conditions noted are these: 25 μCi, 2, 6 and 12 h post injection, in words. The method, then:
Ex vivo autoradiography was performed on rats injected with 25 μCi 5-^125 I-6-NQP and killed at 2, 6 and 12 h post injection.

A further series relates to serotonin uptake system. As to the kind of experiment: competition of known ligands against 5-125I-6-NQP in membrane preparation. The conditions noted are these: versus e.g. sertraline and fluoxetine, in words. The series is classed as binding, rat. The method, then:
In the second set of experiments, competition experiments were performed with known agonist and antagonists to the serotonin uptake system, post synaptic serotonin receptors, and a receptors of other brain receptor systems. These compounds were incubated against 5-^125 I-6-NQP to determine the concentration needed to displace 5-^125 I-6-NQP from the membrane preparations. The strongest competitors were those specific for the serotonin uptake system, (FIG. 2).

Series [5] in a line: in vivo brain uptake, clearance and regional distribution of 5-125I-6-NQP after i.v. injection. The note with it: rat. The procedure: Whole body distribution studies were performed in rats in accordance with the method of Carl Mathis, et al described in Nuclear Medicine and Biology 19: 571-588 (1992).
The ratios of regional activity concentrations to cerebellar concentrations are plotted in the left panel of FIG. 4. […] Also plotted in the right panel of FIG. 4 is the time course of specific binding (total regional radioactivity cerebellar radioactivity) in a representative tissue.

In series [6] the test system is 5-HT reuptake complex. As to the kind of experiment: in vivo blocking of 5-125I-6-NQP brain binding by co-injected drugs. On the set-up: species or system rat. The conditions noted are these: co-injection, LSD 0.5 mg/kg; GBR-12909 and DMI 2 mg/kg, in words.
Excerpt: A critical test of the in vivo behavior of the radioligand is the ability to block its specific binding.
A further series relates to depression. The note with it: patients, in words; cited from earlier work.
For the next series, the system named is 5-HT reuptake site. As to the kind of experiment: neurotoxin (PCA) pretreatment study, 5-125I-6-NQP binding. The conditions noted are these: PCA 10 mg/kg for 2 days. The format is in vivo, rat. The source says:
The in vivo results were consistent with the reduction in Bmax measured by in vitro binding methods and indicated up to a 90% reduction in 5-HT reuptake site densities in lesioned rats.

[7] abbreviates: rat cortical brain homogenates, 3H-paroxetine displacement, read-out: In vitro Inhibition Constants (Ki) for the 5-HT Reuptake Site.

Sequence of serotonin uptake sites (P31652 whole entry): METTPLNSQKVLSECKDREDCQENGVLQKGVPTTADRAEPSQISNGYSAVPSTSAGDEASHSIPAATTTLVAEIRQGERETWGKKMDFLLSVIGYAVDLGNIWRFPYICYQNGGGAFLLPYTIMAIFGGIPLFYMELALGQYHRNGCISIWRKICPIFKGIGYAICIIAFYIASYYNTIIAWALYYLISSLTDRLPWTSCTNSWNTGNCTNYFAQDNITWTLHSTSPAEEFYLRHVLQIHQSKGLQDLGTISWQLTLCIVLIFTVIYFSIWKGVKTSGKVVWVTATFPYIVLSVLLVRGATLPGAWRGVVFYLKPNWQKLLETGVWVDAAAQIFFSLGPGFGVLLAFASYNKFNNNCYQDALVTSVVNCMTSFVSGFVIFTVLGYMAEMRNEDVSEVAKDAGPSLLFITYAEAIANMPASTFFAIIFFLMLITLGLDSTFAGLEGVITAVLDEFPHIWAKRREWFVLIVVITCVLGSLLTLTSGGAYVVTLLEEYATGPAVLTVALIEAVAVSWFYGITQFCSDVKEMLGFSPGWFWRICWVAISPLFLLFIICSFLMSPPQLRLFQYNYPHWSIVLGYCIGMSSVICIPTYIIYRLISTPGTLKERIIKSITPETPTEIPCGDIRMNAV
T1 sequence (P31652 whole entry, one chain of several): as the sequence (P31652 whole entry) above

The Ki is the dissociation constant of the complex between target and ligand, obtained from inhibition or displacement. Take `O=[N+]([O-])c1cc(Br)c2nc(N3CCNCC3)ccc2c1` [8-Br-6-NQP, 8-Bromo-6-nitro-2-piperazinylquinoline]: the Ki in series [1] was determined as 18 ± 3 nM. For the same molecule, in series [2], the “Potency Ratio” value turned out to be 78.
Turning to `O=[N+]([O-])c1ccc2nc(N3CCNCC3)ccc2c1[125I]` [5-^125 I-6-NQP, [^125 I]5-Iodo-6-nitro-2-piperazinylquinoline], on serotonin uptake sites, the “affinity (Kd) after PCA treatment” value is “little change in the affinity (Kd)”. At serotonin uptake sites (listed as INQUIP), the “affinity (Kd) after PCA treatment” value is given as “without change in affinity” and the “total binding (Bmax) after PCA treatment” value is given as “enormous reduction in binding after PCA treatment”. Further, in [3] (25 uCi, rat brain, 25 μCi, 6 h, read-out: unmetabolized radioligand in brain (organic phase radioactivity)), the remaining at 6 h is over 98%. The “metabolic deiodination in vivo” value in [3] (rat, 6 h, in words) is given as “metabolic deiodination of 5-^125 I-6-NQP occurs in vivo in rats”. Further, the “radioactivity in the thyroid gland” value in series [3] (rat, 6 h post injection) is reported as 11 % of the injected dose. In addition, the “binding distribution in rat brain by ex vivo autoradiography” value in the series on 5-HT reuptake complex [4] was “consistent with the known neuroanatomical distribution of the 5-HT reuptake complex”. For the same molecule, the “relative potency for the uptake site versus other serotonin uptake ligands” value in the series with serotonin uptake system is “greater than that observed for other serotonin uptake ligands”. Also, the whole brain accumulation in series [5] (25 μCi (11 pmoles) i.v., 5 min post injection) was 1.9 % of the injected dose. The “ratios of regional to cerebellar activity concentrations” value in series [5] (i.v., 12 h period post injection, in words) is recorded as “increase in a nearly linear manner over the 12 h period post injection”. Moreover, in series [5] (i.v., in words), the brain penetration result is reported as “good brain penetration” and the “clearance of nonspecific binding (cerebellum) versus regions of high 5-HT innervation” value was “more rapid than that of radioactivity clearance from brain regions containing high concentrations of 5-HT innervation”. Also, the “loss of activity from the brain” value in series [5] (i.v., over 12 h, in words) is listed as “slow steady loss of activity from the brain over 12 h”.
For `O=[N+]([O-])c1cc2ccc(N3CCNCC3)nc2cc1Br` [7-Br-6-NQP, 7-Bromo-6-nitro-2-piperazinylquinoline], the affinity in series [1] corresponds to a Ki of 4.1 ± 1.5 nM. In [2], the “Potency Ratio” value is given as 18.
With `O=[N+]([O-])c1ccc2nc(N3CCNCC3)c(Br)cc2c1` [3-Br-6-NQP, 3-Bromo-6-nitro-2-piperazinylquinoline], in [1], the Ki stood at 9.6 ± 2.6 nM. Further, the “Potency Ratio” value in [2] was 42.
On to `O=[N+]([O-])c1ccc2nc(N3CCNCC3)cc(Br)c2c1` [4-Br-6-NQP], for which the Ki in series [1] (setting [7]) came out at 200 ± 80 nM. Further, the “Potency Ratio” value in [2] is 870.
With `O=[N+]([O-])c1ccc2nc(N3CCNCC3)ccc2c1Br` [5-Br-6-NQP, 5-Bromo-6-nitro-2-piperazinylquinoline], the Ki in series [1] was 0.13 ± 0.02 nM. The “Potency Ratio” value in series [2] was 0.57.
For the molecule `Fc1ccc(C(OCCN2CCN(CCCc3ccccc3)CC2)c2ccc(F)cc2)cc1` [GBR-12909], the “radioactivity concentrations in brain regions” value in the series with 5-HT reuptake complex [6] was “little effect on radioactivity concentrations in these regions”.
On the same count and under the same terms, for `CCN(CC)C(=O)[C@@H]1C=C2c3cccc4[nH]cc(c34)C[C@H]2N(C)C1` [LSD] the value was “little effect on radioactivity concentrations in these regions”.
On to `CNCCC(Oc1ccc(C(F)(F)F)cc1)c1ccccc1` (racemic) [fluoxetine, (±)-N--Methyl-3-Phenyl-3-[(ααα-trifluoro-p-tolyl)oxy]propylamine], for which, in the series on depression, the “anti-depressant efficacy compared with certain tricyclic amine drugs” value is “equal anti-depressant efficacy”; the “total side effects and dropouts compared with certain tricyclic amine drugs” value was “fewer total side effects and dropouts”.
Regarding `CC(N)Cc1ccc(Cl)cc1` (stereo not shown) [PCA, p-chloroamphetamine], the “specifically bound radioactivity after PCA pretreatment” value with 5-HT reuptake site (i.v. 5-125I-6-NQP two weeks later, in words) is on record as “regionally selective reduction of specifically bound radioactivity”. In the series with 5-HT reuptake site (two weeks before), the “reduction in 5-HT reuptake site densities in lesioned rats” value is on record as at most 90%.
Regarding `O=[N+]([O-])c1ccc2nc(N3CCNCC3)ccc2c1` [6-NQP, 6-nitro-2-N-piperazinylquinoline, reference compound], the Ki in series [1] (setting [7]) was determined as 0.23 ± 0.06 nM. For the same molecule, the “Potency Ratio” value in series [2] was determined as 1.
